Experimental data taken from patent publication US20200223826A1, “Glucose-6-Phosphate Dehydrogenase (G6PD)-Modulating Agents And Methods Of Treating G6PD Deficiency” (The Board of Trustees of the Leland Stanford Junior …, priority 2017, published 2020).

Experiments:
[1] = biological target: T1, G6PD in human erythrocytes (Homo sapiens, UniProt P11413); assay: Erythrocyte refrigerated storage assay, G6PD activity; format: cell-based; conditions: AG1 1 μM
T1 construct: host or cells: human erythrocytes
Description: (§1) De-identified blood samples were obtained from the Stanford Blood Center. Erythrocytes were collected by filtering the samples through a cellulose slurry to remove platelets and leukocytes and then washed with saline. G6PD activity was measured (Beutler E. Red cell metabolism: A manual of biochemical methods (3rd edition). Grune & Stratton (1984)). […] A 5% erythrocyte suspension was pre-incubated with 1-5 μM AG1 at 4° C. overnight, which was followed by treatment with (or without) either 1 mM chloroquine (CQ) or 1 mM diamide for 3-4 hours at 37° C. (for hemolysis assay with chloroquine, the mixture was incubated under light). Then centrifugation at 1,000 rpm for 5 minutes was followed. Hemoglobin release in the supernatant was monitored by measuring absorbance at 540 nm. […] After wash, the samples were lysed with 0.1% Triton X-100 (final concentration), and the florescence was analyzed with excitation/emission at 485/525 nm. GSH measurement was determined using a Cayman glutathione assay kit (Cayman Chemicals, 703002). […] The absorbance was read at 412 nm. For storage assay, a 5% erythrocyte suspension was stored at 4° C. with and without 1 μM AG1, and hemolysis and G6PD activity were monitored every week for 28 days to examine whether AG1 improves preservation of erythrocytes over time. Protein leakage was also examined by measuring the absorbance of the supernatant of samples at 280 nm. […]

[2] = biological target: aldehyde dehydrogenase 2 (ALDH2) (Homo sapiens, UniProt P05091); assay: Selectivity: dimerization or activity of other NAD/NADP+-dependent enzymes; format: biochemical
[3] = tested on: fibroblasts with the Mediterranean variant; assay: Viability of fibroblasts, with and without siRNA knockdown; format: cell-based, human
Description: Cell viability was measured using a Cell-Counting Kit-8 (CCK-8, Dojindo), utilizing WST-8 [2-(2-methoxy-4-nitrophenyl)-3-(4-nitrophenyl)-5-(2,4-disulfophenyl)-2H-tetrazolium monosodium salt, according to the manufacturer's instructions. Cells were subjected to serum starvation for 48 hours before measurement. Cells in 100 μL of medium per well were treated with 10 μL of CCK-8 solution and incubated for 2 hours at 37° C. The absorbance was read at 450 nm. Viability of lymphocytes was measured by staining with a 0.4% solution of trypan blue in buffered isotonic salt solution (pH 7.2). The viability was calculated as the number of viable cells (non-stained by the dye) divided by the total number of cells within the grids on the hemacytometer. Cells were treated with 1 μM of the compound 24 hours before the measurement.
Endogenous G6PD was knocked down in each cell line as follows; 2 pmol of siRNA G6PD (Santa Cruz Biotechnology) and 0.5 μg lipofectamine (Invitrogen) were diluted in 10 μL of Opti-MEM medium respectively and incubated for 5 minutes. The diluted siRNA was combined with diluted lipofectamine, which was followed by additional incubation for 20 minutes prior to the addition to cells in a 96-well plate.

human erythrocytes [4] = assay: GSH levels in erythrocytes under oxidative stressors; format: cell-based; conditions: drug-induced oxidative stress
Description: as §1

human erythrocytes [5] = assay: Hemolysis of human erythrocytes under oxidative stressors; format: cell-based
Description: as §1

[6] = biological target: T2, Mediterranean (S188F) G6PD (Homo sapiens, UniProt P11413, S188F); assay: G6PD variant enzyme activity; format: biochemical
T2 construct: His (pET-28a) (N, cleaved yes); made in house; host or cells: E. coli C43 (DE3)
Description: (§2) Enzyme activity was measured by monitoring NADPH production, which was coupled with diaphorase converting resazurin to fluorescent resorufin (excitation at 565 nm and emission at 590 nm); fluorescent signal was thus proportional to G6PD activity. Assays were performed at 25° C. and run for 5 minutes in buffer containing 50 mM Tris (pH 7.4), 0.5 mM EDTA, 3.3 mM MgCl2, 1 U/ml diaphorase, 0.1 mM resazurin. 10 ng of recombinant enzymes or 10 μg of cell lysates was used for the assay with 10 μM NADP^+ (Sigma) as cofactor and 100 μM G6P (Sigma) as substrate. Steady-state kinetic parameters were obtained by varying concentrations of NADP^+ (0-10 μM) with a constant concentration of G6P (100 μM) and similarly for G6P (0-100 μM) with a constant concentration of NADP^+ (10 μM) with 10 ng of recombinant enzymes. Data analysis was performed using GraphPad Prism software v.6 (GraphPad Software, La Jolla, Calif. USA). Kinetic parameters were obtained by fitting the data to the Michaelis-Menten equation.

Kaiping (R463H) G6PD = biological target: T3, Kaiping (R463H) G6PD (Homo sapiens, UniProt P11413, R463H); assay: G6PD variant enzyme activity; format: biochemical
T3 construct: His (pET-28a) (N, cleaved yes); made in house; host or cells: E. coli C43 (DE3)
Description: as §2

A- (V68M, N126D) G6PD = biological target: T4, A- (V68M, N126D) G6PD (Homo sapiens, UniProt P11413, N126D/V68M); assay: G6PD variant enzyme activity; format: biochemical
T4 construct: His (pET-28a) (N, cleaved yes); made in house; host or cells: E. coli C43 (DE3)
Description: as §2

human erythrocytes [7] = assay: Erythrocyte refrigerated storage assay, hemolysis; format: cell-based; conditions: 672 h, read-out: reduction of hemolysis
Description: as §1

T2 sequence (P11413 whole entry S188F): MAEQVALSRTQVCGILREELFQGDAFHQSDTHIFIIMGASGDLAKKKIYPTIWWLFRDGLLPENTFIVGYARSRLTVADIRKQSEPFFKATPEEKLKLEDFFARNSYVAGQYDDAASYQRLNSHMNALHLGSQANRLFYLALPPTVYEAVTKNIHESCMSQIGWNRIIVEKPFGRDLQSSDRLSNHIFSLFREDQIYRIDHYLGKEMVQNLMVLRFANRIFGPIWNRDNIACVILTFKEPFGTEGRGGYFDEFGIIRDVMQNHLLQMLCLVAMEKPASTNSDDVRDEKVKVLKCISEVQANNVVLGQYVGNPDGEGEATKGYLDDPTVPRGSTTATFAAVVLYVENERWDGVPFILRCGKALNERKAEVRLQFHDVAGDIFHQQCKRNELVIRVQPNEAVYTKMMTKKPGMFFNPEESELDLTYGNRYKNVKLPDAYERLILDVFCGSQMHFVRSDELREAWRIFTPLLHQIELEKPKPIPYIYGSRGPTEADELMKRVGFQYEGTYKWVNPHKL
T1 sequence (P11413 2-515 limits assumed): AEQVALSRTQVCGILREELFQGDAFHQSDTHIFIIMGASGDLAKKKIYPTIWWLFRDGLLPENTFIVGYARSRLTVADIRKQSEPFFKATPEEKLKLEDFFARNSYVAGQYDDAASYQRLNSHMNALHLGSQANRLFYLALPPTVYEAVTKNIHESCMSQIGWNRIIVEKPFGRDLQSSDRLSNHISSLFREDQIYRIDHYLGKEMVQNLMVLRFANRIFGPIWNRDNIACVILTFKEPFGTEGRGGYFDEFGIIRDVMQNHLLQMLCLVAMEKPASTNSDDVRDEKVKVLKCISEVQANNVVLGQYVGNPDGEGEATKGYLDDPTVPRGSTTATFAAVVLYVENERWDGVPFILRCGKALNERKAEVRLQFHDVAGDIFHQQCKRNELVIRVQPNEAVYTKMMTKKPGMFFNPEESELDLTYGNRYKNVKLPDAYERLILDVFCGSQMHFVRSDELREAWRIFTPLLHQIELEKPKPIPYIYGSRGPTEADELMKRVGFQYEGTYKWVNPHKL
T3 sequence (P11413 whole entry R463H): as the sequence (P11413 whole entry S188F) above, with F188S, R463H counted along it
Chain of aldehyde dehydrogenase 2 (ALDH2) (P05091 18-517, species assumed): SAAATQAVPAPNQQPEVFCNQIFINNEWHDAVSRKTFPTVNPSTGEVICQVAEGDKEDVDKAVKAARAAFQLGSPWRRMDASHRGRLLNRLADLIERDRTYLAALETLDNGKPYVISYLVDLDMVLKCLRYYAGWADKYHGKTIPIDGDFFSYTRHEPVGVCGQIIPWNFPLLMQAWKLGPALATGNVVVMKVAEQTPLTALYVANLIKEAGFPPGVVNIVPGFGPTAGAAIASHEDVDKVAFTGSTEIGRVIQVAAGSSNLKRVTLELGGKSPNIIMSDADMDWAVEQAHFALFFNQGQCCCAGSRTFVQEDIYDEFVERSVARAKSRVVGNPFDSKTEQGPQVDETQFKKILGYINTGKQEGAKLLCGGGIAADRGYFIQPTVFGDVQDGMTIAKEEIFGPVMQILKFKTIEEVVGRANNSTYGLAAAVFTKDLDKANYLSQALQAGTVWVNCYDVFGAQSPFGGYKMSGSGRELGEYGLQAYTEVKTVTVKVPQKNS
T4 sequence (P11413 whole entry V68M/N126D): as the sequence (P11413 whole entry S188F) above, with V68M, N126D, F188S counted along it

Structure (SMILES): SCCNCCc1c[nH]c2ccccc12 [AG1, 2-[2-(1H-indol-3-yl)ethylamino]ethanethiol]
- G6PD activity [1]: increased
- effect on dimerization or activity [2]: no effect
- rescue of viability ([3]; Mediterranean G6PD expression knocked down by siRNA): did not rescue
- improvement of viability ([3]; stress conditions): 22%
- GSH levels (human erythrocytes [4]): increased
- chloroquine-induced hemolysis (human erythrocytes [5]; AG1 1 μM): rescued
- extent of hemolysis (human erythrocytes [5]; AG1 5 μM, 5% erythrocyte suspension, 1 mM chloroquine or diamide): reduces the extent of hemolysis
- activation of variant [6]: up to 2 fold
- activation of variant (Kaiping (R463H) G6PD): up to 2 fold
- activation of variant (A- (V68M, N126D) G6PD): up to 2 fold
- reduction of hemolysis at 1 µM (human erythrocytes [7]): 12%
